This is an account of results in patent US8394772B2, “Glycoside derivative and uses thereof” (Novartis AG, priority 2009, dated 2013).

One test addresses T1, human SGLT1 (Homo sapiens, UniProt P13866).
T1 construct: expressed in transfected cells; host or cells: CHO-K1 or HEK293
T1 sequence (P13866 1-664): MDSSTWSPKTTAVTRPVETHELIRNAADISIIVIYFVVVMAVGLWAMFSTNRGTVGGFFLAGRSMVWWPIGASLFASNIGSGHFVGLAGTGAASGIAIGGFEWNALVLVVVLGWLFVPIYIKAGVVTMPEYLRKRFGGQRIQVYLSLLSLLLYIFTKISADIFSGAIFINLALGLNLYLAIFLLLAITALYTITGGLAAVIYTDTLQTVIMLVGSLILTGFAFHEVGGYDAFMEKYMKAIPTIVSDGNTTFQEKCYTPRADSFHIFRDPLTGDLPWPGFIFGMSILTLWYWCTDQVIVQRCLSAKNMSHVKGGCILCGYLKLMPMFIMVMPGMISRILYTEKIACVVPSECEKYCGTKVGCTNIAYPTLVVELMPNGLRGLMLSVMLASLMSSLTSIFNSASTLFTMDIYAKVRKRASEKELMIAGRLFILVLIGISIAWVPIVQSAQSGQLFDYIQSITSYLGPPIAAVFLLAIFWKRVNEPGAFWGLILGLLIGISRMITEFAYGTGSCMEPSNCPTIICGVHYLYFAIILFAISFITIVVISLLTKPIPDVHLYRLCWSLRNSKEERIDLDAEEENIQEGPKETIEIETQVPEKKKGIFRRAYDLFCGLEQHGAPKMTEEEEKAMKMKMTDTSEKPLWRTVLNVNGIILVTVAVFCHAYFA
In words: Analogous SGLT1 selectivity test: hSGLT1 expressed in CHO-K1 or HEK293 cells. Particulars: n = 1-4; 14C-AMG uptake, hSGLT1-transfected CHO-K1 or HEK293 cells. The format is cell-based. Here is the method:
(§1) The SGLT-2 assay is carried out as follows: CHO-hSGLT2 cells are cultivated in Ham's F12 Medium (BioWhittaker) with 10% fetal calf serum and 250 μg/mL zeocin (Invitrogen), and HEK293-hSGLT2 cells are cultivated in DMEM medium with 10% fetal calf serum and 250 μg/mL zeocin (Invitrogen). The cells are detached from the culture flasks by washing twice with PBS and subsequently treating with trypsin/EDTA. After the addition of cell culture medium the cells are centrifuged, resuspended in culture medium and counted in a Casy cell counter. Then 40,000 cells per well are seeded into a white, 96-well plate coated with poly-D-lysine and incubated overnight at 37° C., 5% CO2. The cells are washed twice with 250 μl of assay buffer (Hanks Balanced Salt Solution, 137 mM NaCl, 5.4 mM KCl, 2.8 mM CaCl2, 1.2 mM MgSO4 and 10 mM HEPES (pH 7.4), 50 μg/mL of gentamycin). 250 μl of assay buffer and 5 μl of test compound are then added to each well and the plate is incubated for a further 15 minutes in the incubator. 5 μl of 10% DMSO are used as the negative control. The reaction is started by adding 5 μl of 14 C-AMG (0.05 μCi) to each well. After 2 hours' incubation at 37° C., 5% CO2, the cells are washed again with 250 μl of PBS ([…]) and then lysed by the addition of 25 μl of 0.1 N NaOH (5 min. at 37° C.). 200 μl of MicroScint20 (Packard) are added to each well and incubation is continued for a further 20 min at 37° C. After this incubation the radioactivity of the 14 C-AMG absorbed is measured in a Topcount (Packard) using a 14 C scintillation program.
To determine the selectivity with respect to human SGLT1 an analogous test is set up in which the cDNA for hSGLTI (Genbank Ace. No. NM000343) instead of hSGLT2 cDNA is expressed in CHO-K1 or HEK293 cells.

Test [1] deals with T2, human sodium glucose cotransporter 2 (Homo sapiens, UniProt P31639).
T2 construct: expressed in transfected cells; host or cells: CHO-K1 (ATCC CCL-61) or HEK293 (ATCC CRL-1573), stably transfected with pZeoSV
T2 sequence (P31639 1-672): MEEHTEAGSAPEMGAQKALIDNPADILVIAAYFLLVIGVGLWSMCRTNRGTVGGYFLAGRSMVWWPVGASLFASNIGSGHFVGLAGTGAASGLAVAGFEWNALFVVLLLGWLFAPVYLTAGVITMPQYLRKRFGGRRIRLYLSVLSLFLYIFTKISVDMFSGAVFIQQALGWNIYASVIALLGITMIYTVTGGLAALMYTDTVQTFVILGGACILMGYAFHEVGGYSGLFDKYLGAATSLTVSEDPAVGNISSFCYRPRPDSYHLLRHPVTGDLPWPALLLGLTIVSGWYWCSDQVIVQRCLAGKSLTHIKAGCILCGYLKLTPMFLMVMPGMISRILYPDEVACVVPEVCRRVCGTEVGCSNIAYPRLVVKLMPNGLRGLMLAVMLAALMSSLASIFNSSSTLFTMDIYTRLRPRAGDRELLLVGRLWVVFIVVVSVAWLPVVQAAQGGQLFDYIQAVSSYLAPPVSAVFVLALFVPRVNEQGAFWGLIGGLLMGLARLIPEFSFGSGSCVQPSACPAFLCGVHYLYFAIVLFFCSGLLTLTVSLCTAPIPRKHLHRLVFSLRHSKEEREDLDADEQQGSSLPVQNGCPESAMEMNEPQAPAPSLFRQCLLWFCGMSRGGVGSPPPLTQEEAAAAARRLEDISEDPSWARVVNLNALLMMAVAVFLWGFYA
Kind of test: SGLT-2 assay: sodium-dependent 14C-AMG uptake in CHO-hSGLT2 or HEK-hSGLT2 cells. It is filed as cell-based. Particulars: n = 1-4, hSGLT2-transfected CHO-K1 or HEK293 cells, read-out: SGLT2 IC50 nM (n = 1-4). Here is the method:
These cell lines transport 14 C-labeled alpha-methyl-glucopyranoside (14 C-AMG, Amersham) into the interior of the cell in sodium-dependent manner.
as §1

Turning to `CCOc1ccc(Cc2cc([C@@H]3OC4(CC4)[C@@H](O)[C@H](O)[C@H]3O)ccc2C)cc1` [Example 3, (5S,6R,7R,8S)-5-[3-(4-Ethoxy-benzyl)-4-methyl-phenyl]-4-oxa-spiro[2.5]octane-6,7,8-triol], the values for the 50% inhibitory concentration (IC50) (at human SGLT1; in test [1]) were 153 nM and 0.9 nM, respectively.

Regarding `Oc1ccc(Cc2cc([C@@H]3OC4(CC4)[C@@H](O)[C@H](O)[C@H]3O)ccc2Cl)cc1` [Example 6, (5S,6R,7R,8S)-5-[4-Chloro-3-(4-hydroxy-benzyl)-phenyl]-4-oxa-spiro[2.5]octane-6,7,8-triol], the IC50 on human SGLT1 was determined as 460 nM; in test [1], 2.6 nM.

In the case of `CCOc1ccc(Cc2cc([C@@H]3OC(CO)(CO)[C@@H](O)[C@H](O)[C@H]3O)ccc2Cl)cc1` [Example 10, (3S,4R,5R,6S)-6-[4-Chloro-3-(4-ethoxy-benzyl)-phenyl]-2,2-bis-hydroxymethyl-tetrahydro-pyran-3,4,5-triol], the IC50 at human SGLT1 is more than 30000 nM; in test [1] it was 23 nM.

On to `CCOc1ccc(Cc2cc([C@@H]3OC4(CC4)[C@@H](O)[C@H](O)[C@H]3O)ccc2Cl)cc1` [Example 2, (5S,6R,7R,8S)-5-[4-Chloro-3-(4-ethoxy-benzyl)-phenyl]-4-oxa-spiro[2.5]octane-6,7,8-triol], for which the IC50 came out at 300 nM at human SGLT1 and 1 nM in test [1].

A word on the IC50: it is the concentration at which inhibition is half-maximal.
